Like-named read-outs stand apart in the source and are kept apart here.
What was measured:
[1] = system: GFP-expressing HeLa cells; test: cAMP detection in HeLa expression cell line, GFP control; type: cell-based, human; settings: Homo sapiens, HeLa; for Emax: relative to 100uM forskolin (100%) and DMSO (0%), read-out: GFP Max Activity %
Method: (§1) HeLa stable expression cell lines were produced by lentiviral transduction. Briefly, lentiviral plasmids for each GPCR with a C-terminal V5 Tag ([…]) were made in a pLX317 backbone using competent Escherichia coli (New England Biolabs, C3050H). Lenti-X 293 T (Takara, 632810) cells were transfected with the lentiviral plasmids to produce virus. Low-passage HeLa cells (American Type Culture Collection, CCL-2) were then transduced with lentivirus. After 48 hours, HeLa cells were cultured under selection with puromycin (3 μg/ml) and allowed to recover and expand before storing stocks in liquid nitrogen.
(§2) cAMP was measured in cells using the Lance Ultra cAMP Kit. HeLa cells were cultured under puromycin (3 μg/ml) selection. One day before the experiment, cells were seeded in T75 flasks and allowed to adhere overnight. On the day of the experiment, cells were washed twice with Dulbecco’s PBS and lifted using prewarmed 1× versene solution (Gibco, 15040066). Cells were counted in HBSS (Gibco, 14025092) and then resuspended in stimulation buffer prepared according to the manufacturer’s instructions and adjusted to pH 7.2 using 1 M sodium hydroxide. Cells were added to the plate at a density of 1500 cells per well in white opaque 384-well assay ready microplates containing 100 nl of 10 mM compound in DMSO. Cells were stimulated for 30 min at RT, then lysed and incubated with detection reagents for 1 hour in the dark at RT. Plates were read on BMG Labtech PHERAstar FSX (excitation, 337 nm; emission, 620 and 665 nm). Data analysis was performed using GraphPad Prism.

mGPR65 = target: T1, mGPR65 (Mus musculus, UniProt Q61038); test: cAMP detection in HeLa expression cell line, mGPR65; type: cell-based; settings: for EC50: read-out: mGPR EC50; for Emax: HeLa, relative to 100uM forskolin (100%) and DMSO (0%), read-out: mGPR Max Activity %
T1 construct: expressed in transfected cells; host or cells: HeLa (ATCC CCL-2), lentiviral transduction, pLX317
Method: as §1, §2

hGPR65 = target: T2, hGPR65 (Homo sapiens, UniProt Q8IYL9); test: cAMP detection in HeLa expression cell line, hGPR65; type: cell-based; settings: for EC50 / Emax: NA = no activity; for EC50: read-out: hGPR EC50; for Emax: HeLa, relative to 100uM forskolin (100%) and DMSO (0%), read-out: hGPR Max Activity %
T2 construct: expressed in transfected cells; host or cells: HeLa (ATCC CCL-2), lentiviral transduction, pLX317
Method: as §1, §2

[2] = 1st GFP column pair, NA = no activity
[3] = 1st mGPR column pair, NA = no activity
[4] = 2nd mGPR column pair, NA = no activity
[5] = 2nd GFP column pair, NA = no activity

T1 sequence (Q61038 whole entry): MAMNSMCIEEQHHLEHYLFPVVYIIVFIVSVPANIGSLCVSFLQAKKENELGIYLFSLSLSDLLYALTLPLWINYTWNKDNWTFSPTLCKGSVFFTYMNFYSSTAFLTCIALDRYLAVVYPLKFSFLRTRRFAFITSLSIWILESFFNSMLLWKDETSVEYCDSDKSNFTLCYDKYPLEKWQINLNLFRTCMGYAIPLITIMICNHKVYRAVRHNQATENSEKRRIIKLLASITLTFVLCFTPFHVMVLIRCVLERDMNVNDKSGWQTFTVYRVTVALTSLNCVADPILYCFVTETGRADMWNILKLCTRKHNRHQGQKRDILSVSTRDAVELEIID
T2 sequence (Q8IYL9 whole entry): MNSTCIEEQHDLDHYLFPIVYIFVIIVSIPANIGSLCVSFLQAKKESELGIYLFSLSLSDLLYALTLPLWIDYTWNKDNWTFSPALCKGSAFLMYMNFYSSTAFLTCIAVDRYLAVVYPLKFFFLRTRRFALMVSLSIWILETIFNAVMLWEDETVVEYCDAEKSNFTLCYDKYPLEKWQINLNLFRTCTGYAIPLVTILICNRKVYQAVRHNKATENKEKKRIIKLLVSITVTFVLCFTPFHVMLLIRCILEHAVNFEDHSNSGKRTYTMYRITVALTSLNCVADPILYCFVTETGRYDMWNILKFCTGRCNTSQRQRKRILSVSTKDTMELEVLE

| Compound | EC50 [1, 2] | Emax [1, 2] | EC50 (mGPR65; [3]) | EC50 (mGPR65; [4]) | Emax (mGPR65; [4]) | Emax (mGPR65; NA = no activity) | EC50 (hGPR65; 1st hGPR column pair) | EC50 (hGPR65; 2nd hGPR column pair) | Emax (hGPR65; 1st hGPR column pair) | Emax (hGPR65; 2nd hGPR column pair) | EC50 [1, 5] | Emax [1, 5] | potency and total cAMP production relative to BRD2813 (hGPR65; receptor not given) | EC50 ([1]; SAR cAMP assay, first EC50/Max pair of GFP control columns) | Emax ([1]; first pair) | Emax (mGPR65; first pair) | EC50 (mGPR65; SAR cAMP assay, first EC50/Max pair) |
| --- | --- | --- | --- | --- | --- | --- | --- | --- | --- | --- | --- | --- | --- | --- | --- | --- | --- |
| Cc1ccc(NC(=O)c2cnn3c(O)cc(-c4ccc(COC(C)C)cc4)nc23)cn1 [BRD5071] | 24900 nM | 8.1% | 1540 nM | 1610 nM | 61.2% | 60.5% | 991 nM | 1890 nM | 74.2% | 60.4% | – | – | – | – | – | – | – |
| Cc1ncc(NC(=O)c2cnn3c(O)cc(-c4ccc(COC(C)C)cc4)nc23)cn1 [BRD5072] | 6880 nM | 3.5% | 4790 nM | 5040 nM | 49% | 51.1% | 8180 nM | 6930 nM | 59.1% | 48.2% | 376 nM | 1.42% | – | – | – | – | – |
| Cc1cnc(NC(=O)c2cnn3c(O)cc(-c4ccc(COC(C)C)cc4)nc23)cn1 [BRD5073] | – | – | 2270 nM | 2780 nM | 59.1% | 71% | 2160 nM | 3050 nM | 73.6% | 65.1% | 3530 nM | 2.17% | – | – | – | – | – |
| O=C(Nc1ccccc1)c1cnn2c(O)cc(COc3ccccc3)nc12 [BRD5802] | 41400 nM | 5.04% | – | – | – | – | 89800 nM | – | 55.7% | – | – | – | – | – | – | – | – |
| Cc1ccc(NC(=O)c2cnn3c(O)cc(COc4ccccc4)nc23)cc1 [BRD6694] | – | – | – | 19700 nM | 5.79% | – | 8030 nM | 4640 nM | 20.7% | 22.4% | – | – | – | – | – | – | – |
| CCOCc1ccc(-c2cc(O)n3ncc(C(=O)Nc4ccc(C)cc4)c3n2)cc1 [BRD6745] | – | – | 554 nM | 511 nM | 48.9% | 52.9% | 667 nM | 413 nM | 83.5% | 81.6% | – | – | – | – | – | – | – |
| Cc1ccc(NC(=O)c2cnn3c(O)cc(-c4ccc5ccccc5c4)nc23)cc1 [BRD7102] | – | – | 191 nM | 269 nM | 35.2% | 40.7% | 272 nM | 151 nM | 79.7% | 72.5% | – | – | improved potency but had little effect on total cAMP production | – | – | – | – |
| Cc1ccc(NC(=O)c2cnn3c(O)cc(Cc4ccc5ccccc5c4)nc23)cc1 [BRD7330] | – | – | – | – | – | – | – | – | – | – | – | – | – | 2320 nM | 1.96% | 11.6% | 383 nM |
| CCN(CC)C(=O)c1cnn2c(O)cc(-c3ccc(COC)cc3)nc12 [BRD7582] | 6330 nM | 10.8% | – | – | – | – | 2640 nM | – | 4.89% | – | – | – | – | – | – | – | – |
| O=C(O)c1cnn2c(O)cc(-c3ccc(F)cc3)nc12 [BRD7884] | 9180 nM | 3.25% | – | – | – | – | – | – | – | – | – | – | – | – | – | – | – |
| COc1ncccc1-c1cc(O)n2ncc(C(=O)Nc3ccc(Cl)cc3)c2n1 [BRD8007] | 6140 nM | 6.72% | 2170 nM | – | – | 20% | – | – | – | – | – | – | – | – | – | – | – |
| CCn1cc(Cl)c(-c2cc(O)n3ncc(C(N)=O)c3n2)n1 [BRD8068] | 52900 nM | 40.7% | 16400 nM | – | – | 13.4% | – | – | – | – | – | – | – | – | – | – | – |
| COc1ccc(-c2cc(O)n3ncc(C(=O)Nc4ccc(C)cc4)c3n2)cc1 [BRD9965] | – | – | 24200 nM | 32300 nM | -39% | -56.6% | 734 nM | 924 nM | 73.8% | 66% | – | – | – | – | – | – | – |
| COCc1ccc(-c2cc(O)n3ncc(C(=O)Nc4ccc(NC(C)=O)cc4)c3n2)cc1 [BRD9998] | 91800 nM | 3.25% | – | – | – | – | 17600 nM | – | 1.34% | – | – | – | – | – | – | – | – |

From PMC11259170, “Small-molecule probe for IBD risk variant GPR65 I231L alters cytokine signaling networks through positive allosteric modulation” (Science Advances, 2024)
